According to publication PMC7704793 (Bioorganic & medicinal chemistry letters, 2020):

Assays:
MRSA ATCC 43300 = test: Inhibition of MRSA biofilm formation, crystal violet reporter assay; type: cell-based, Staphylococcus aureus; conditions: SAR discussion
CCD-18 Co cells = test: MTT cytotoxicity assay in normal human colon cells; type: cell-based; conditions: day 1, CCD-18 Co cells

Structure (SMILES) | MRSA biofilm inhibition activity compared to the parent 5a (in words) (MRSA ATCC 43300) | other results
Cc1ccc(-c2cc(-c3nc4ccccc4c(=O)[nH]3)nc(N)n2)cc1 [Compound 5b] | reduced activity | –
COc1ccc(-c2cc(-c3nc4ccccc4c(=O)[nH]3)nc(N)n2)cc1OC [Compound 5e] | reduced activity | –
COc1cc(OC)c(-c2cc(-c3nc4ccccc4c(=O)[nH]3)nc(N)n2)c(OC)c1 [Compound 5h] | – | cellular toxicity (MTT) (CCD-18 Co cells; 50 μM, versus DMSO controls): minimal
COc1cc(-c2cc(-c3nc4ccccc4c(=O)[nH]3)nc(N)n2)cc(OC)c1OC [Compound 5i] | considerably reduced activity | –
CSc1ccc(-c2cc(-c3nc4ccccc4c(=O)[nH]3)nc(N)n2)cc1 [Compound 5j] | – | cellular toxicity (MTT) (CCD-18 Co cells; 50 μM, versus DMSO controls): more cytotoxic
Nc1nc(-c2cccc(Br)c2)cc(-c2nc3ccccc3c(=O)[nH]2)n1 [Compound 5k] | – | cellular toxicity (MTT) (CCD-18 Co cells; 12.5 μM (lowest concentration used)): significant toxicity
Nc1nc(-c2cccc(OCc3ccccc3)c2)cc(-c2nc3ccccc3c(=O)[nH]2)n1 [Compound 5r] | reduced activity | –
